This note sets out measurements from patent US8809386B2, “Use of dynamin ring stabilizers” (Children's Medical Research Institute, priority 2009, dated 2014).

Assay [1] deals with T1, full length dynamin I (Ovis aries, UniProt A0ACI6NZN1).
T1 sequence (A0ACI6NZN1 1-864): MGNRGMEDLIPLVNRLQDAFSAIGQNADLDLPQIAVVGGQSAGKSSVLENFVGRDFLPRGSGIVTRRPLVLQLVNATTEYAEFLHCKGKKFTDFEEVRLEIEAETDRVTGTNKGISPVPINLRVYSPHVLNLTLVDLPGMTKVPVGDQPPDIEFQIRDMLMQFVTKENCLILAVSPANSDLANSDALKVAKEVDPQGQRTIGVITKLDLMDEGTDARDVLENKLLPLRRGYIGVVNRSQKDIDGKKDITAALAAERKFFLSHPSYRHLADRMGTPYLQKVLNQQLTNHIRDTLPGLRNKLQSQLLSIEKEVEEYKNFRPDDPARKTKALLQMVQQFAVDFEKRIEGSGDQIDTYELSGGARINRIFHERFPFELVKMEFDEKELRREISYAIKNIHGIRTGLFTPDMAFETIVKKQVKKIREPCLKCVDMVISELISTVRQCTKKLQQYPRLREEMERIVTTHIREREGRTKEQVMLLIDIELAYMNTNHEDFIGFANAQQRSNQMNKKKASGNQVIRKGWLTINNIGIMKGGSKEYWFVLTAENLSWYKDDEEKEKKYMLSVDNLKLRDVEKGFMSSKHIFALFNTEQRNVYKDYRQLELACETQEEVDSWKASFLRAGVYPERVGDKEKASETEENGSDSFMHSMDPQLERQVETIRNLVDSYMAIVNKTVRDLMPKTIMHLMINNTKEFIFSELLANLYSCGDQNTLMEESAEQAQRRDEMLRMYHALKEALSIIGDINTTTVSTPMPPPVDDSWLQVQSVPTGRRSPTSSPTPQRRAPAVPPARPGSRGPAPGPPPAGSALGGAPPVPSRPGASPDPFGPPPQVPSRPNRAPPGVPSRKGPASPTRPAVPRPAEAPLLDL
Description: Basal dynamin GTPase activity in the absence of PS liposomes or other template (ring stabilizer activity). It counts as biochemical, sheep. The protocol:
The compounds were present at the indicated concentrations and the concentration causing half-maximal stimulation is shown as the EC50.
Dynamin I (50 nM) GTPase stimulation was performed in the absence of the detergent Tween-80 (and in the absence of any known activators such as PS liposomes, nanotubes or microtubules). […] The GTPase activity of dynamin I (dynI; 200 nM) was measured in the absence of lipid activators (and in the presence of standard Tween-80 at 0.06%).
A compound (whether a dynamin inhibitor or not) can be identified as a dynamin ring stabilizer by assaying for its capacity to promote accumulation of dynamin rings and/or to inhibit disassembly of dynamin rings. […] GTPase activity of dynamin or dynamin rings can be determined by any conventionally known method (e.g., see Quan and Robinson. 2005). Such conditions include: (a) the absence of a helix assembly template such as liposomes, microtubules or lipid nanotubes, and (b) higher concentrations of dynamin than normally required for detecting template stimulated activity, typically 50-500 nM dynamin instead of 1-20 nM. Thus, ring stabilizer activity can be identified by the ability to stimulate the GTPase activity of full length dynamin in the absence of other stimulatory factors (such as PS liposomes, microtubules or nanotubes). Additional defining characteristics are available but are not essential if the first condition has been met. One such additional characteristic of ring stabilizer activity is that the stimulated activity occurs after a lag phase of a few minutes, rather than being an immediate activation in vitro. […] Such conditions typically mean utilising 50-200 nM dynamin in the absence of a template as distinct from higher concentrations where self-assembly is known to occur without the addition of a dynamin ring stabilizer.
Next, a time course experiment of Bis-T-23 stimulation of dynamin GTPase (FIG. 3) was conducted. […] The lag phase is thought to indicate the time required for dynamin to assemble as rings.

Assay [2] has as its system dynamin I. Nature of the assay: Dynamin disassembly centrifugation assay, helix preassembled on PS liposomes. It counts as biochemical. To be noted: FIG. 7. The protocol: Briefly, dynamin I was preassembled as a helix in the presence of PS liposomes for 30 min, after which the dynamin ring stabilizer Bis-T-23 or non-dynamin ring stabilizer dynole 34-2 (see Example 4) were added. The samples were then centrigued in a microfuge for 10 min to collect supernatans (Sup) or pellets. In this assay, helical dynamin is found primarily in the pellet. However, the addition of either NaCl (150 mM) or Mg/GTP (1 mM) is known to disassemble dynamin and it is found primarily in the supernatant (see FIG. 7). […] This unique mechanism of action explains why dynamin ring stabilizers can stimulate basal GTPase while inhibiting helical dynamin GTPase activity at the same time.

In assay [3] the test system is dynamin. Description: Electron microscopy of helical dynamin on PS liposomes. To be noted: 5 μM, FIG. 8. It counts as biochemical. The source says:
FIGS. 8 (A) to (D) are electron micrographs showing Bis-T-23 prevents constriction or helical expansion of dynamin on PS liposomes in vitro. It stabilizes the dynamin helix, which loses its flexibility and forms uniform diameter rings, inhibiting dynamin ring disassembly.
A characteristic of helical dynamin is that the helix is a highly flexible structure. Upon GTP hydrolysis it is able to rapidly reduce its diameter (constriction) while also expanding in length (helical expansion) (Stowell et al. 1999; Chen et al. 2004; Roux et al. 2006). This is thought to be a potential mechanism utilized for the fission of the necks of newly budded endocytic vesicles in cells (Roux et al. 2006). The highly flexible nature of helical dynamin was confirmed by EM analysis of dynamin bound to phosphatidylserine liposomes in the absence of GTP or GDP (FIG. 8). Dynamin mixed with PS liposomes formed a helix with specific characteristics (FIGS. 8A and C): the individual loops of the helix were highly varied in diameter, formed at different angles relative to the underlying lipid, and the spacing between loops was highly variable. […] Bis-T-23 bound dynamin appeared similar to previous reports of GTPγS-bound dynamin on lipid nanotubes (Stowell et al. 1999).

Assay [4] relates to cultured mouse podocytes. Nature of the assay: Actin cytoskeleton and focal adhesions in cultured podocytes (rhodamine-phalloidin, anti-paxillin). To be noted: 10 min after addition. It counts as cell-based. The protocol:
FIG. 19 is a photograph showing the effects of Bis-T-23 on the actin cytoskeleton in podocytes. Cells were stained using rhodamine-phalloidin for F-actin (left column) and anti-paxillin monoclonal antibody (centre column). The merged staining is shown on the right column.
To determine if the in vitro action of the dynamin ring stabilizers also occurs in cells, the effect of Bis-T-23 on the actin cytoskeleton in cultured mouse podocytes was tested (FIG. 19). […] Thus, the observed increase in stress fibers is unlikely due to inhibition of endocytosis.

Molecules are shown by their SMILES.

With `N#CC(=Cc1cc(O)c(O)c(O)c1)C(=O)NCCCNC(=O)C(C#N)=Cc1cc(O)c(O)c(O)c1` [Bis-T-23, 2-cyano-N-{3-[2-cyano-3-(3,4,5-trihydroxyphenyl)-acryloylamino]-propyl}-3-(3,4,5-trihydroxyphenyl)-acrylamide], in assay [1] (5 μM, 800 nM dynamin, 30 mM NaCl, FIG. 3), the “lag phase before stimulation of dynamin GTPase activity” value is listed as “about 4 minutes”. In addition, in assay [1] (Dynamin I 50 nM, no Tween-80, no activators, FIG. 11A), the “stimulation of basal dynamin GTPase activity in the absence of Tween-80” value is recorded as “are dynamin ring stabilizers”. Besides, the “concentration causing 50% activation of basal dynamin activity (EC50)” value in assay [1] (FIG. 2, compared with IC50 of 500 nM) is reported as “about the same value”. In assay [1] (absence of liposomes, 5 μM, FIG. 1), the “dynamin concentration at which basal GTPase activity is stimulated” value is given as at least 100 nM. Also, the “disassembly of helical dynamin by NaCl (150 mM) or Mg/GTP (1 mM)” value in assay [2] is “reduce the disassembly of helical dynamin”. Besides, in assay [3], the “shape of dynamin helix on PS liposomes” value is on record as “drastically altered the helical shape”. Moreover, the “stress fibers in podocytes” value in assay [4] (FIG. 19) is “dramatic increase in well-defined stress fibers”. In assay [4] (FIG. 19B), the “number of focal adhesions (paxillin staining)” value is listed as “dramatic increase in the number of focal adhesions”.
